The record followed here is patent US10336757B2, “Treatment of neurodegenerative diseases through inhibition of HSP90” (Sloan-Kettering Institute for Cancer Research, priority 2006, dated 2019).

Data set [1] relates to p35 and tau phosphorylation. The experiment in a line: Five day PU-DZ8 treatment of nine-month old JNPL3 (P301L tau) mice, whole brain. It counts as in vivo. The source says: Transgenic mice: Transgenic mice, JNPL3 line (59) overexpressing mutant human tau (P301L, 4R0N) were used in this study, Mice were heterozygous and on a mixed hybrid genetic background composed of C57BL/DBA2/SW, as published in ref. 59. These mice develop NFTs in the basal telencephalon, diencephalon, brainstem, and spinal cord, with severe pathology accompanied by degeneration in the spinal cord leading to dystonia, paralysis, and death in mice>12 months in age. Nine month-old male JNPL3 mice (n=2) were treated intraperitoneally with PU-DZ8 or vehicle for 5 days. Mice were sacrificed 12 h after last treatment by cervical dislocation under anesthesia.
To further examine the effect of Hsp90 on tau phosphorylation, we used the JNPL3 line of mice expressing mutant (P301L) tau protein (59). Genetic analyses have linked mutations in the tau gene to FTDP-17 (60, 61). Over 20 distinct pathogenic mutations have been identified, with P301L as the most common mutation in tauophaties (33). […] The tau protein in JNPL3 is predominantly human and is phosphorylated at multiple sites: T181 (AT270), S202/T205 (AT8), T212 (AT100), T231 (AT180), S262, S396/S404, S409 and 5422 (59, 62). […] The degree of p35 expression translated well into alleviation of phosphorylation. […] However, in mice where effects were more prominent and p35 expression declined to approximately 20% as compared to control, a significant effect on tau phosphorylation at S202/T205 and T212/S214 and a 50% reduction on T231 was observed. We could not detect a significant amount of tau phosphorylation at T181, site found to be hyperphosphorylated in PHF, tangles and neurofilaments (65). Again, whole brain expression of cdk5 was not affected (FIG. 3).

The target of another data set is P-glycoprotein (Homo sapiens (Human), UniProt P08183). The experiment in a line: P-glycoprotein substrate status. As to conditions: purine scaffold therapeutic. It counts as in vitro ADME.
The nature of data set [2]: Experimentally determined logP by RP-HPLC. It counts as physicochemical. The following applies: using RP-HPLC. From the text:
Compounds of this type may also be provided with a degradable or cleavable linker, such that monomeric agents are provided in vivo. In this embodiment, the dimeric form need not retain activity or the ability to cross the blood brain barrier, and the nature of the linker therefore is not relevant to activity, only to the ability to form active monomeric species. In general, moderately lipophilic drugs such as PUs cross the BBB by passive diffusion. A good structural understanding for the BBB permeability is still lacking, but several parameters are believed to facilitate such behavior. Lipophilicity was the first of the descriptors to be identified as important for CNS penetration. […] The mean value for ClogP for the marketed CNS drugs is 2.5. […] The rules for molecular weight in CNS drugs have been reviewed, where small molecules may undergo significant passive lipid-mediated transport through the blood brain barrier, when the molecular mass is kept in or below a 400- to 600-Da range (90). PU-DZ8 has a MW of 512. All the QSAR equations emphasize the importance of hydrogen bonding —CNS penetration requires 5 or less hydrogen bond acceptors (91). PU-DZ8 has 4. […] PSA has been used as a predictor for BBB penetration by many investigators (92). In general, drugs aimed at the CNS tend to have lower polar surface areas than other classes (93,94). […]

Data set [3] has as its system p35 and Tau phosphorylation on Ser202. The experiment in a line: One dose PU-DZ8 in hTau mice, cortical S1 fractions. The following applies: 75 mg/kg i.p. Format: in vivo, mouse. The method, then:
The majority of Tau pathology in hTau mice is located in the cortical brain region. These mice express six isoforms of non-mutant human Tau, but develop AD-like Tau-pathology. Heat-stable fractions (S1) prepared from cortical homogenates of these mice indicate an age-related accumulation of Tau phosphorylated at putative cdk5 sites. […] Aggregate-free Tau (S1) fractions were prepared from the cortical region of these mice and human Tau levels assessed by immunobloting with an antibody specific for 3-repeat domain Tau (RD3). By analogy to experiments on primary neuronal cultures and WT Tau transfected cells, the Hsp90 inhibitor had no effect on soluble WT Tau expression. […] The monoclonal antibody CP13 is commonly used to detect Tau pathology in both early and more advanced stages of Tau aggregate accumulation (41).

P-glycoprotein, sequence (P08183 whole entry): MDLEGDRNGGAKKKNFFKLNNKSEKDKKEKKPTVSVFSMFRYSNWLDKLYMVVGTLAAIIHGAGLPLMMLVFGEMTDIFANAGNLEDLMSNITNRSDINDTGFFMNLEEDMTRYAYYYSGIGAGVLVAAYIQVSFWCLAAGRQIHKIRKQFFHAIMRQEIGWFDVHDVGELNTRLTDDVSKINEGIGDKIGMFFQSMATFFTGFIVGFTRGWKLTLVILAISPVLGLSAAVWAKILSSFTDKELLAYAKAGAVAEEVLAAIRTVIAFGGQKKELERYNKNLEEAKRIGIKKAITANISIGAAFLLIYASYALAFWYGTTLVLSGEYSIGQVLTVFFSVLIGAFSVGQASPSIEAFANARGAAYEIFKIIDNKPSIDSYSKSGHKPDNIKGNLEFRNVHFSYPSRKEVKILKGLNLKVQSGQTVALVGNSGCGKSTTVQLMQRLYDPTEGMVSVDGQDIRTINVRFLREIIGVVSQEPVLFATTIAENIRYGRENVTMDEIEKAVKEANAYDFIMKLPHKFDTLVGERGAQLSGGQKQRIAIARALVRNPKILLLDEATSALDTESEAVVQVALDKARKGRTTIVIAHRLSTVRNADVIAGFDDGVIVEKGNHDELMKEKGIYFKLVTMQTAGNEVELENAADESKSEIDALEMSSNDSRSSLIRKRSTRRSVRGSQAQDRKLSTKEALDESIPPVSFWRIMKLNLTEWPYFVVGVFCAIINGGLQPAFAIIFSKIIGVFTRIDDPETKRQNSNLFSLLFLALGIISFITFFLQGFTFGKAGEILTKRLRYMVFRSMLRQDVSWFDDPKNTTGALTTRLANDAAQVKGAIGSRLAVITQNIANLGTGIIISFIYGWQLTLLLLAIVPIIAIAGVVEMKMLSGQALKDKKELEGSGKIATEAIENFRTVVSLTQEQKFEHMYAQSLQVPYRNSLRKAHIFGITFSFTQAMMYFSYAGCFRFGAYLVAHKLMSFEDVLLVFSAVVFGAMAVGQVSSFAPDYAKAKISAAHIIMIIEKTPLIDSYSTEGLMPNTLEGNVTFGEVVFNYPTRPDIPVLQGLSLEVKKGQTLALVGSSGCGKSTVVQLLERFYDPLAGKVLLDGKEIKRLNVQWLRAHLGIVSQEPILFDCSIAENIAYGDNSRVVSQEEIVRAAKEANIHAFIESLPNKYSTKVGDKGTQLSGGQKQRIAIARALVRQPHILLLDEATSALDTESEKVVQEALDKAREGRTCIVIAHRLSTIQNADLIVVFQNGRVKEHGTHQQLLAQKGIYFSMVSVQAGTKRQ

With `CC(C)NCCCn1c(Cc2cc3c(cc2I)OCO3)nc2c(N)nc(F)nc21` [PU-DZ8], the “whole brain expression of cdk5” value in data set [1] (5 days i.p.) is “not affected”. Further, the “compound levels in brain” value in data set [1] (5 days i.p., 12 h after last treatment) is reported as “Pharmacologically relevant levels”. Further, the “p35 expression as compared to control” value in data set [1] (5 days i.p., mice where effects were more prominent) is listed as “approximately 20%”. In data set [1] (5 days i.p., whole brain), the “reduction in p35 levels” value turned out to be 50%; the “tau phosphorylation at putative cdk5 sites S202/T205 and T212” value is “significant amelioration”. Further, the “phosphorylation on T212/S214 (Ab AT-100)” value in data set [1] (at 50% reduction in p35 levels) is “almost completely”. Further, in data set [1] (at a reduction by 50% in p35 expression), the “tau phosphorylated at T231 (Ab AT-180)” value is reported as “No significant effect”. Also, in data set [1] (mice where p35 declined to approximately 20% of control), the “reduction of tau phosphorylation on T231” value came out at 50%. Further, the P-gp substrate entry on P-glycoprotein was “not a substrate of P-pg”. The “experimentally determined logP” value in data set [2] is 1.53. Moreover, in data set [3] (8 h post-administration), the “Tau phosphorylation on Ser202 (antibody CP13)” value is listed as “alleviation of Tau phosphorylation” and the p35 levels result was “significant time-dependent reduction”. The “soluble WT Tau expression” value in data set [3] (cortical S1) is recorded as “no effect”.
